Laboratory results as given in ChEMBL document CHEMBL1909046, “DrugMatrix in vitro pharmacology data”.

Experiments:
[1] = target: T1, Alpha-2C adrenergic receptor (Homo sapiens, UniProt P18825); experiment: DRUGMATRIX: Adrenergic Alpha-2C radioligand binding (ligand: [3H] MK-912); assay type: cell membranes, Sf9, Membrane; conditions: sf9
T1 sequence (P18825 whole entry): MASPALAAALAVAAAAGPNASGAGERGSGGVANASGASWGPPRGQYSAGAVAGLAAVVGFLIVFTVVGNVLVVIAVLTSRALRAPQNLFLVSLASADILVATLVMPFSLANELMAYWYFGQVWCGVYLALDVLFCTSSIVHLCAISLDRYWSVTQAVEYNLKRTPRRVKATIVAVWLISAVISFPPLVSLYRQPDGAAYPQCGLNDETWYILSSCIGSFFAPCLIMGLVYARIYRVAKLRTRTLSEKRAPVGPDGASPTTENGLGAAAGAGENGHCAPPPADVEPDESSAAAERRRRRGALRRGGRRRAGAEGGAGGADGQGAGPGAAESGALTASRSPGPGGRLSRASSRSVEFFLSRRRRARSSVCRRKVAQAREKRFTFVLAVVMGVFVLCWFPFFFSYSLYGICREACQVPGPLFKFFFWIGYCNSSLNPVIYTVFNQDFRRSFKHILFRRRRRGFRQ

[2] = target: Sodium-dependent noradrenaline transporter (Homo sapiens, UniProt P23975); experiment: DRUGMATRIX: Norepinephrine Transporter radioligand binding (ligand: [125I] RTI-55); assay type: cell membranes, MDCK, Membrane; conditions: mdck; Not Active = under 50% inhibition at 10 µM
[3] = target: T2, Thromboxane-A synthase (Homo sapiens, UniProt P24557); experiment: biochemical; assay type: tissue-based, Platelet; conditions: platelet;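 note: enzyme inhibition assay with PGH2 supplied as substrate; in other assays of this panel Not Active means under 50% inhibition at 10 µM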
T2 sequence (P24557 whole entry): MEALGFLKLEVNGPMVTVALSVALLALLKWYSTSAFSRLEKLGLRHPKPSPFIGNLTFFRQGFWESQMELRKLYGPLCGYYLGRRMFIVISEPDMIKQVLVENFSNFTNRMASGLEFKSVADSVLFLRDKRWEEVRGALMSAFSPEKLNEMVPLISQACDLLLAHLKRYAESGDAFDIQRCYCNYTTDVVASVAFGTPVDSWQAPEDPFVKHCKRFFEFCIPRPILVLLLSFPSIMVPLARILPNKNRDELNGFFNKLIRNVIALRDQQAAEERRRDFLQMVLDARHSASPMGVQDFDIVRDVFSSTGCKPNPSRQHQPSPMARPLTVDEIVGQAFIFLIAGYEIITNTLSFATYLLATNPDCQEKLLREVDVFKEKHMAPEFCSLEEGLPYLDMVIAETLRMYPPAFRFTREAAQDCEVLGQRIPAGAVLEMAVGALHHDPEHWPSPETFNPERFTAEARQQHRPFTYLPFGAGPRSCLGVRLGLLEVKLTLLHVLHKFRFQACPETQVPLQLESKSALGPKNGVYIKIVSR

[4] = target: T3, C-X-C chemokine receptor type 1 (Homo sapiens, UniProt P25024); note: in other assays of this panel Not Active means under 50% inhibition at 10 µM
T3 sequence (P25024 whole entry): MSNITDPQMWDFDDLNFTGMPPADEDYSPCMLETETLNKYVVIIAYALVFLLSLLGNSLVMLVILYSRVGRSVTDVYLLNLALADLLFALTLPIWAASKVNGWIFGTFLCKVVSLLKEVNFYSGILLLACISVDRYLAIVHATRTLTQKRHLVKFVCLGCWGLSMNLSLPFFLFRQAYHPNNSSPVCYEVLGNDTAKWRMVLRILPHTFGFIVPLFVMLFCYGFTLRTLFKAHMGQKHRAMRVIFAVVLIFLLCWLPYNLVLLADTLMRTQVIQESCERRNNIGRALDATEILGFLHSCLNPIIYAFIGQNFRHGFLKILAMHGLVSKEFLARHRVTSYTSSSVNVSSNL

[5] = DRUGMATRIX: GABAA, Muscimol, Central radioligand binding (ligand: [3H] Muscimol); assay type: cell membranes, Rattus norvegicus, Wistar, Brain, Membrane; conditions: Not Active = under 50% inhibition at 10 µM
[6] = target: T4, Amine oxidase [flavin-containing] A (Homo sapiens, UniProt P21397); experiment: DRUGMATRIX: Monoamine Oxidase MAO-A enzyme inhibition (substrate: Kynuramine); set-up: species or system BTI-TN-5B1-4; conditions: bti-tn-5b1-4; Not Active = under 50% inhibition at 10 µM
T4 sequence (P21397 whole entry): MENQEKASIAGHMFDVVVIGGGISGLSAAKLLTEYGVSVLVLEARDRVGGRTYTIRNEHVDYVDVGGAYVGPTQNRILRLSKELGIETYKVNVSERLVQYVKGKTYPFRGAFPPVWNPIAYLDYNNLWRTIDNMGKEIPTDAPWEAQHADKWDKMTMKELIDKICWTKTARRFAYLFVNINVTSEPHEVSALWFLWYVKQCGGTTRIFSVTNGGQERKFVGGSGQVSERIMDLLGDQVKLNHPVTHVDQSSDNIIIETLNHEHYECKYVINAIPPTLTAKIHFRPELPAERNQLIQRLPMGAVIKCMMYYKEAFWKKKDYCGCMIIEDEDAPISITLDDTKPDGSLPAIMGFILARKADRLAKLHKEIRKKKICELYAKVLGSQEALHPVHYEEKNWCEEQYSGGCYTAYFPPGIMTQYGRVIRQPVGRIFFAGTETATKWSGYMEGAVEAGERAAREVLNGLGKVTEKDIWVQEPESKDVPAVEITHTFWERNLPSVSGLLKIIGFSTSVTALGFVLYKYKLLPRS

[7] = DRUGMATRIX: Potassium Channel [KATP] radioligand binding (ligand: [3H] Glyburide); assay type: cell membranes, Membrane; conditions: hit-t15; Not Active = under 50% inhibition at 10 µM
[8] = target: T5, Neutrophil elastase (Homo sapiens, UniProt P08246); assay type: tissue-based;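 note: inhibition of neutrophil elastase enzyme activity, measured with a p-nitroanilide-linked peptide substrate; in other assays of this panel Not Active means under 50% inhibition at 10 µM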
T5 sequence (P08246 whole entry): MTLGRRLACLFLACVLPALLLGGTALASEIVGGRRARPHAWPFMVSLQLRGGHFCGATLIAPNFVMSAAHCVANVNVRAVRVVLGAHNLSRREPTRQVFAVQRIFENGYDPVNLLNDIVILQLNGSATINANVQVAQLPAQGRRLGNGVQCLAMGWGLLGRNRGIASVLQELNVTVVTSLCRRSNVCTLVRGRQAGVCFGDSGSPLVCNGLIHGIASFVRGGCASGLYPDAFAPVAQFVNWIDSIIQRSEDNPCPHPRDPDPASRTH

[9] = target: Tyrosine-protein kinase Lck (Homo sapiens, UniProt P06239); experiment: DRUGMATRIX: Protein Tyrosine Kinase, LCK enzyme inhibition (substrate: Poly(Glu:Tyr)); assay type: cell-based, Insect cells; conditions: insect cells; Not Active = under 50% inhibition at 10 µM
Sequence of Tyrosine-protein kinase Lck (P06239 whole entry): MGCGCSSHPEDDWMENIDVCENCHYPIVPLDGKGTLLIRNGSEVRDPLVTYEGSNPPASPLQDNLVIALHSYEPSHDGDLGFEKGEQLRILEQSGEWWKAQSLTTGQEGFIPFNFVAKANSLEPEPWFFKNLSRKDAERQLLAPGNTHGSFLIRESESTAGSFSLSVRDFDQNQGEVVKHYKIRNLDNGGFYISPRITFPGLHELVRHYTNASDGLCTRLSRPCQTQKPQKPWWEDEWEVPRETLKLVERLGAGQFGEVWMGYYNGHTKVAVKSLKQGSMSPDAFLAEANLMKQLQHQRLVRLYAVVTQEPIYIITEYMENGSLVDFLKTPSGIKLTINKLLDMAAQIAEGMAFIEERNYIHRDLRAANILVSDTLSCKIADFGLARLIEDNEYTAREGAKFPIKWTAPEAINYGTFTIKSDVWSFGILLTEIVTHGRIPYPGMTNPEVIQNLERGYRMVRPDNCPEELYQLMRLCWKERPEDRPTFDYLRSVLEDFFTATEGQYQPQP

Sequence of Sodium-dependent noradrenaline transporter (P23975 whole entry): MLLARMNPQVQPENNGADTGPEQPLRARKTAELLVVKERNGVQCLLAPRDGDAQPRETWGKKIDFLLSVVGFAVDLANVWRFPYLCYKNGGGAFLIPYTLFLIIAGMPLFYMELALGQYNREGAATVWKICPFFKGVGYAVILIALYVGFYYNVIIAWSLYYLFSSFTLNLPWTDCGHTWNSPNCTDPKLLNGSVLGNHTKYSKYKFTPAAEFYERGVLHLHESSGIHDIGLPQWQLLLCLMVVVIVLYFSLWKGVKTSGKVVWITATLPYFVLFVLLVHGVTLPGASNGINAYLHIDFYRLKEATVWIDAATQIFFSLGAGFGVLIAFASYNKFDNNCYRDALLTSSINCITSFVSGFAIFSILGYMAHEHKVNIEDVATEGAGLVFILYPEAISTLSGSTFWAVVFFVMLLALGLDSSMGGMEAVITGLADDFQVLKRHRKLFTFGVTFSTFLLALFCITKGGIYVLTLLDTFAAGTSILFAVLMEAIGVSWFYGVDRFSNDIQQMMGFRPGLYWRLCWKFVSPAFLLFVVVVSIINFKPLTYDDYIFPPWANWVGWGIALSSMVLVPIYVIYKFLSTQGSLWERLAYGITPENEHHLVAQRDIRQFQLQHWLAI

O=C1CCc2cc(OCCCCc3nnnn3C3CCCCC3)ccc2N1 [CILOSTAZOL]
Not Active: IC50 [1] | IC50 [2] | IC50 [3] | IC50 [4] | IC50 [5] | Ki [5] | IC50 [6] | IC50 [7] | Ki [7] | IC50 [8] | IC50 [9]

O=C(O)c1cn(C2CC2)c2cc(N3CCNCC3)c(F)cc2c1=O [CIPROFLOXACIN]
Not Active: IC50 [1] | IC50 [2] | IC50 [3] | IC50 [4] | IC50 [5] | Ki [5] | IC50 [6] | IC50 [7] | Ki [7] | IC50 [8] | IC50 [9]

CCOC(=O)OC(C)OC1=C(C(=O)Nc2ccccn2)N(C)S(=O)(=O)c2ccccc21 (stereo not given) [AMPIROXICAM]
Not Active: IC50 [1] | IC50 [2] | IC50 [3] | IC50 [4] | IC50 [5] | Ki [5] | IC50 [6] | IC50 [7] | Ki [7] | IC50 [8] | IC50 [9]

NCC1(CC(=O)O)CCCCC1 [GABAPENTIN]
Not Active: IC50 [1] | IC50 [2] | IC50 [3] | IC50 [4] | IC50 [5] | Ki [5] | IC50 [6] | IC50 [7] | Ki [7] | IC50 [8] | IC50 [9]

CCc1ccc(C(=O)C(C)CN2CCCCC2)cc1 (stereo not given) [EPERISONE]
Not Active: IC50 [1] | IC50 [2] | IC50 [3] | IC50 [4] | IC50 [5] | Ki [5] | IC50 [6] | IC50 [7] | Ki [7] | IC50 [8] | IC50 [9]

CN1CCC[C@H]1c1cccnc1 [NICOTINE]
Not Active: IC50 [1] | IC50 [2] | IC50 [3] | IC50 [4] | IC50 [5] | Ki [5] | IC50 [6] | IC50 [7] | Ki [7] | IC50 [8] | IC50 [9]

NCC(=O)O [GLYCINE]
Not Active: IC50 [1] | IC50 [2] | IC50 [3] | IC50 [4] | IC50 [5] | Ki [5] | IC50 [6] | IC50 [7] | Ki [7] | IC50 [8] | IC50 [9]

CC1(C)S[C@@H]2[C@H](NC(=O)[C@H](NC(=O)N3CCNC3=O)c3ccccc3)C(=O)N2[C@H]1C(=O)O [AZLOCILLIN]
Not Active: IC50 [1] | IC50 [2] | IC50 [3] | IC50 [4] | IC50 [5] | Ki [5] | IC50 [6] | IC50 [7] | Ki [7] | IC50 [8] | IC50 [9]

OXALIPLATIN
Not Active: IC50 [1] | Ki [1] | IC50 [2] | Ki [2] | IC50 [3] | Ki [3] | IC50 [4] | Ki [4] | IC50 [5] | Ki [5] | IC50 [6] | Ki [6] | IC50 [7] | Ki [7] | IC50 [8] | Ki [8] | IC50 [9] | Ki [9]

CCc1cccc2c3c([nH]c12)C(CC)(CC(=O)O)OCC3 (stereo not given) [ETODOLAC]
Not Active: IC50 [1] | IC50 [2] | IC50 [3] | IC50 [4] | IC50 [5] | Ki [5] | IC50 [6] | IC50 [7] | Ki [7] | IC50 [8] | IC50 [9]

Cc1[nH]cnc1CN1CCc2c(c3ccccc3n2C)C1=O [ALOSETRON]
Not Active: IC50 [1] | IC50 [2] | IC50 [3] | IC50 [4] | IC50 [5] | Ki [5] | IC50 [6] | IC50 [7] | Ki [7] | IC50 [8] | IC50 [9]

C/C=C1\[C@H]2C=C(C)C[C@]1(N)c1ccc(=O)[nH]c1C2 [HUPERZINE A]
Not Active: IC50 [1] | IC50 [2] | IC50 [3] | IC50 [4] | IC50 [5] | Ki [5] | IC50 [6] | IC50 [7] | Ki [7] | IC50 [8] | IC50 [9]

O=c1[nH]cc(F)c(=O)[nH]1 [FLUOROURACIL]
Not Active: IC50 [1] | IC50 [2] | IC50 [3] | IC50 [4] | IC50 [5] | Ki [5] | IC50 [6] | IC50 [7] | Ki [7] | IC50 [8] | IC50 [9]
